{
  "source": "patent US8592456B2",
  "about": "(4SC Discovery GmbH, priority 2011, dated 2013)",
  "test_system": "PBMC (T cell proliferation)",
  "assay": "T cell proliferation assay, PHA-stimulated human PBMC (BrdU ELISA)",
  "type": "cell-based",
  "conditions": "48 hours, BrdU",
  "in_short": "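BrdU ELISA readout of proliferation at 48 hours. Cells: human PBMC from healthy donors in 10% dialyzed FCS/RPMI1640, 1×10^5 per well, activated by 2 μg/ml phytohaemagglutinin in the presence of compound.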",
  "key": {"[1]": {"conditions": "human PBMC, 2 μg/ml PHA, read-out: D: IC50 (Tcell proliferation)"}, "[2]": {"conditions": "PHA-stimulated human PBMC, column D, activity classes 1-4, read-out: IC50 (Tcell proliferation)"}},
  "note": "Like-named read-outs stand apart in the source and are kept apart here.",
  "data": [
    {"smiles": "COC(=O)c1c(-c2c(F)cccc2Cl)noc1-c1cnn(-c2cccnc2)c1C(F)(F)F", "note": "[Example B-67, methyl 3-(2-chloro-6-fluorophenyl)-5-(1-(pyridin-3-yl)-5-(trifluoromethyl)-1H-pyrazol-4-yl)isoxazole-4-carboxylate]", "values": [
      {"measurement": "IC50", "setting": "[1]", "value": "10 to 100", "unit": "nM"}
    ]},
    {"smiles": "CCOC(=O)c1c(-c2c(Cl)cccc2Cl)noc1-c1cnn(-c2cccc(Cl)c2)c1C(F)(F)F", "note": "[Example B-45, ethyl 5-(1-(3-chlorophenyl)-5-(trifluoromethyl)-1H-pyrazol-4-yl)-3-(2,6-dichlorophenyl)-isoxazole-4-carboxylate]", "values": [
      {"measurement": "IC50", "setting": "[1]", "value": "< 10", "unit": "nM"}
    ]},
    {"smiles": "Cc1nnc(-c2c(-c3c(F)cccc3Cl)noc2-c2cnn(-c3ccccn3)c2C(F)(F)F)s1", "note": "[IB-27, 3-(2-chloro-6-fluorophenyl)-4-(5-methyl-1,3,4-thiadiazol-2-yl)-5-(1-(pyridin-2-yl)-5-(trifluoromethyl)-1H-pyrazol-4-yl)isoxazole]", "values": [
      {"measurement": "IC50", "setting": "[2]", "value": "10 to 100", "unit": "nM"}
    ]},
    {"smiles": "CCOC(=O)c1c(-c2ccc(Cl)cc2)noc1-c1cnn(-c2cccc(Cl)c2)c1C(F)(F)F", "note": "[Example 77, ethyl 3-(4-chlorophenyl)-5-(1-(3-chlorophenyl)-5-(trifluoromethyl)-1H-pyrazol-4-yl)isoxazole-4-carboxylate]", "values": [
      {"measurement": "IC50", "setting": "[1]", "value": "1000 to 10000", "unit": "nM"}
    ]},
    {"smiles": "COC(=O)c1c(-c2c(F)cccc2Cl)noc1-c1cnn(-c2cccc(F)c2)c1C(F)(F)C(F)F", "note": "[Example 64, methyl 3-(2-chloro-6-fluorophenyl)-5-(1-(3-fluorophenyl)-5-(1,1,2,2-tetrafluoroethyl)-1H-pyrazol-4-yl)isoxazole-4-carboxylate]", "values": [
      {"measurement": "IC50", "setting": "[1]", "value": "1000 to 10000", "unit": "nM"}
    ]},
    {"smiles": "O=C(O)c1c(-c2ccccc2F)noc1-c1cnn(-c2cccc(F)c2)c1C(F)(F)F", "note": "[Example 91, 3-(2-fluorophenyl)-5-(1-(3-fluorophenyl)-5-(trifluoromethyl)-1H-pyrazol-4-yl)isoxazole-4-carboxylic acid]", "values": [
      {"measurement": "IC50", "setting": "[1]", "value": "1000 to 10000", "unit": "nM"}
    ]},
    {"smiles": "CCOC(=O)c1c(-c2c(Cl)cncc2Cl)noc1-c1cnn(-c2ccccc2F)c1C(F)(F)F", "note": "[Example B-9, ethyl 3-(3,5-dichloropyridin-4-yl)-5-(1-(2-fluorophenyl)-5-(trifluoromethyl)-1H-pyrazol-4-yl)isoxazole-4-carboxylate]", "values": [
      {"measurement": "IC50", "setting": "[1]", "value": "10 to 100", "unit": "nM"}
    ]},
    {"smiles": "COC(=O)c1c(-c2c(F)cccc2Cl)noc1-c1cnn(-c2ccc(F)cc2)c1C(F)(F)F", "note": "[Example 3, methyl 3-(2-chloro-6-fluorophenyl)-5-(1-(4-fluorophenyl)-5-(trifluoromethyl)-1H-pyrazol-4-yl)isoxazole-4-carboxylate]", "values": [
      {"measurement": "IC50", "setting": "[1]", "value": "10 to 100", "unit": "nM"}
    ]},
    {"smiles": "CCOC(=O)c1c(-c2ccncc2F)noc1-c1cnn(-c2ccccc2Cl)c1C(F)(F)F", "note": "[Example B-13, ethyl 5-(1-(2-chlorophenyl)-5-(trifluoromethyl)-1H-pyrazol-4-yl)-3-(3-fluoropyridin-4-yl)isoxazole-4-carboxylate]", "values": [
      {"measurement": "IC50", "setting": "[1]", "value": "10 to 100", "unit": "nM"}
    ]},
    {"smiles": "CON(C)C(=O)c1c(-c2c(F)cccc2Cl)noc1-c1cnn(-c2cccnc2)c1C(F)(F)F", "note": "[Example B-56, 3-(2-chloro-6-fluorophenyl)-N-methoxy-N-methyl-5-(1-(pyridin-3-yl)-5-(trifluoromethyl)-1H-pyrazol-4-yl)isoxazole-4-carboxamide]", "values": [
      {"measurement": "IC50", "setting": "[1]", "value": "1000 to 10000", "unit": "nM"}
    ]},
    {"smiles": "O=C(c1c(-c2c(F)cccc2Cl)noc1-c1cnn(-c2cccc(Cl)c2)c1C(F)(F)F)N1CCOCC1", "note": "[Example B-35, (3-(2-chloro-6-fluorophenyl)-5-(1-(3-chlorophenyl)-5-(trifluoromethyl)-1H-pyrazol-4-yl)isoxazol-4-yl)(morpholino)methanone]", "values": [
      {"measurement": "IC50", "setting": "[1]", "value": "1000 to 10000", "unit": "nM"}
    ]},
    {"smiles": "CCOC(=O)c1c(-c2ccncc2F)noc1-c1cnn(-c2ccncc2)c1C(F)(F)F", "note": "[Example B-3, ethyl 3-(3-fluoropyridin-4-yl)-5-(1-(pyridin-4-yl)-5-(trifluoromethyl)-1H-pyrazol-4-yl)isoxazole-4-carboxylate]", "values": [
      {"measurement": "IC50", "setting": "[1]", "value": "100 to 1000", "unit": "nM"}
    ]},
    {"smiles": "COC(=O)c1c(-c2c(F)cccc2Cl)noc1-c1cnn(CC(C)C)c1C(F)(F)F", "note": "[Example 28]", "values": [
      {"measurement": "IC50", "setting": "[1]", "value": "100 to 1000", "unit": "nM"}
    ]},
    {"smiles": "COC(=O)c1c(-c2ccc(Cl)cc2)noc1-c1cnn(-c2cccc(F)c2)c1C(F)(F)F", "note": "[Example 73, methyl 3-(4-chlorophenyl)-5-(1-(3-fluorophenyl)-5-(trifluoromethyl)-1H-pyrazol-4-yl)isoxazole-4-carboxylate]", "values": [
      {"measurement": "IC50", "setting": "[1]", "value": "1000 to 10000", "unit": "nM"}
    ]},
    {"smiles": "CSC(=O)c1c(-c2c(F)cccc2Cl)noc1-c1cnn(-c2cccnc2)c1C(F)(F)F", "note": "[Example B-68, S-methyl 3-(2-chloro-6-fluorophenyl)-5-(1-(pyridin-3-yl)-5-(trifluoromethyl)-1H-pyrazol-4-yl)isoxazole-4-carbothioate]", "values": [
      {"measurement": "IC50", "setting": "[1]", "value": "10 to 100", "unit": "nM"}
    ]},
    {"smiles": "O=C(c1c(-c2c(F)cccc2Cl)noc1-c1cnn(-c2cccnc2)c1C(F)(F)F)N1CCCO1", "note": "[Example B-54, (3-(2-chloro-6-fluorophenyl)-5-(1-(pyridin-3-yl)-5-(trifluoromethyl)-1H-pyrazol-4-yl)isoxazol-4-yl)(isoxazolidin-2-yl)methanone]", "values": [
      {"measurement": "IC50", "setting": "[1]", "value": "1000 to 10000", "unit": "nM"}
    ]},
    {"smiles": "Fc1cccc(Cl)c1-c1noc(-c2cnn(-c3cccc(Cl)c3)c2C(F)(F)F)c1Br", "note": "[Example 140, 4-bromo-3-(2-chloro-6-fluorophenyl)-5-(1-(3-chlorophenyl)-5-(trifluoromethyl)-1H-pyrazol-4-yl)isoxazole]", "values": [
      {"measurement": "IC50", "setting": "[1]", "value": "10 to 100", "unit": "nM"}
    ]},
    {"smiles": "CN1CCN(C(=O)c2c(-c3c(F)cccc3Cl)noc2-c2cnn(-c3ccccc3F)c2C(F)(F)F)CC1", "note": "[Example 17, (3-(2-chloro-6-fluorophenyl)-5-(1-(2-fluorophenyl)-5-(trifluoromethyl)-1H-pyrazol-4-yl)isoxazol-4-yl)(4-methylpiperazin-1-yl)methanone]", "values": [
      {"measurement": "IC50", "setting": "[1]", "value": "1000 to 10000", "unit": "nM"}
    ]},
    {"smiles": "O=C(c1c(-c2c(F)cccc2Cl)noc1-c1cnn(-c2ccccc2F)c1C(F)(F)F)N1CCCO1", "note": "[Example B-52, (3-(2-chloro-6-fluorophenyl)-5-(1-(2-fluorophenyl)-5-(trifluoromethyl)-1H-pyrazol-4-yl)isoxazol-4-yl)(isoxazolidin-2-yl)methanone]", "values": [
      {"measurement": "IC50", "setting": "[1]", "value": "1000 to 10000", "unit": "nM"}
    ]},
    {"smiles": "O=C(c1c(-c2c(F)cccc2Cl)noc1-c1cnn(-c2cccc(F)c2)c1C(F)(F)F)N1CCOCC1", "note": "[Example 127, (3-(2-chloro-6-fluorophenyl)-5-(1-(3-fluorophenyl)-5-(trifluoromethyl)-1H-pyrazol-4-yl)isoxazol-4-yl)(morpholino)methanone]", "values": [
      {"measurement": "IC50", "setting": "[1]", "value": "1000 to 10000", "unit": "nM"}
    ]},
    {"smiles": "CNC(=S)c1c(-c2c(F)cccc2Cl)noc1-c1cnn(-c2cccc(F)c2)c1C(F)(F)F", "note": "[Example 122, 3-(2-chloro-6-fluorophenyl)-5-(1-(3-fluorophenyl)-5-(trifluoromethyl)-1H-pyrazol-4-yl)-N-methylisoxazole-4-carbothioamide]", "values": [
      {"measurement": "IC50", "setting": "[1]", "value": "100 to 1000", "unit": "nM"}
    ]},
    {"smiles": "O=C(Nc1c(-c2c(F)cccc2Cl)noc1-c1cnn(-c2cccc(F)c2)c1C(F)(F)F)C(F)(F)F", "note": "[Example B-22, N-(3-(2-chloro-6-fluorophenyl)-5-[1-(3-fluorophenyl)-5-(trifluoromethyl)-1H-pyrazol-4-yl]-1,2-oxazol-4-yl)-2,2,2-trifluoroacetamide]", "values": [
      {"measurement": "IC50", "setting": "[1]", "value": "1000 to 10000", "unit": "nM"}
    ]},
    {"smiles": "COC(=O)c1c(-c2c(F)cccc2Cl)noc1-c1cnn(-c2ccc(OC(F)(F)F)cc2)c1C(F)(F)F", "note": "[Example 33, methyl 3-(2-chloro-6-fluorophenyl)-5-(1-(4-(trifluoromethoxy)phenyl)-5-(trifluoromethyl)-1H-pyrazol-4-yl)isoxazole-4-carboxylate]", "values": [
      {"measurement": "IC50", "setting": "[1]", "value": "1000 to 10000", "unit": "nM"}
    ]},
    {"smiles": "Fc1cccc(Cl)c1-c1noc(-c2cnn(-c3cccc(Cl)c3)c2C(F)(F)F)c1-c1ccoc1", "note": "[IB-7, 3-(2-chloro-6-fluorophenyl)-5-(1-(3-chlorophenyl)-5-(trifluoromethyl)-1H-pyrazol-4-yl)-4-(furan-3-yl)isoxazole]", "values": [
      {"measurement": "IC50", "setting": "[2]", "value": "< 10", "unit": "nM"}
    ]},
    {"smiles": "Fc1cccc(-n2ncc(-c3onc(-c4c(F)cccc4Cl)c3-c3nnn[nH]3)c2C(F)(F)F)c1", "note": "[Example I-2, 3-(2-chloro-6-fluorophenyl)-5-(1-(3-fluorophenyl)-5-(trifluoromethyl)-1H-pyrazol-4-yl)-4-(1H-tetrazol-5-yl)isoxazole]", "values": [
      {"measurement": "IC50", "setting": "[2]", "value": "1000 to 10000", "unit": "nM"}
    ]},
    {"smiles": "O=C(O)c1c(-c2ccccc2Cl)noc1-c1cnn(-c2cccc(Cl)c2)c1C(F)(F)F", "note": "[Example B-42, 3-(2-chlorophenyl)-5-(1-(3-chlorophenyl)-5-(trifluoromethyl)-1H-pyrazol-4-yl)-isoxazole-4-carboxylic acid]", "values": [
      {"measurement": "IC50", "setting": "[1]", "value": "1000 to 10000", "unit": "nM"}
    ]},
    {"smiles": "CON(C)C(=O)c1c(-c2ccccc2F)noc1-c1cnn(-c2cccc(F)c2)c1C(F)(F)F", "note": "[Example 94, 3-(2-fluorophenyl)-5-(1-(3-fluorophenyl)-5-(trifluoromethyl)-1H-pyrazol-4-yl)-N-methoxy-N-methylisoxazole-4-carboxamide]", "values": [
      {"measurement": "IC50", "setting": "[1]", "value": "1000 to 10000", "unit": "nM"}
    ]},
    {"smiles": "CCOC(=O)c1c(-c2c(F)cccc2Cl)noc1-c1cnn(-c2cccc(S(N)(=O)=O)c2)c1C(F)(F)F", "note": "[Example B-43, ethyl 3-(2-chloro-6-fluorophenyl)-5-(1-(3-sulfamoylphenyl)-5-(trifluoromethyl)-1H-pyrazol-4-yl)-isoxazole-4-carboxylate]", "values": [
      {"measurement": "IC50", "setting": "[1]", "value": "1000 to 10000", "unit": "nM"}
    ]},
    {"smiles": "Fc1cccc(-n2ncc(-c3onc(-c4c(F)cccc4Cl)c3-c3ccsc3)c2C(F)(F)F)c1", "note": "[Example I-16, 3-(2-chloro-6-fluorophenyl)-5-(1-(3-fluorophenyl)-5-(trifluoromethyl)-1H-pyrazol-4-yl)-4-(thiophen-3-yl)isoxazole]", "values": [
      {"measurement": "IC50", "setting": "[2]", "value": "< 10", "unit": "nM"}
    ]},
    {"smiles": "CCOC(=O)c1c(-c2ccccc2F)noc1-c1cnn(-c2cccc(Cl)c2)c1C(F)(F)F", "note": "[Example B-47, ethyl 5-(1-(3-chlorophenyl)-5-(trifluoromethyl)-1H-pyrazol-4-yl)-3-(2-fluorophenyl)isoxazole-4-carboxylate]", "values": [
      {"measurement": "IC50", "setting": "[1]", "value": "10 to 100", "unit": "nM"}
    ]},
    {"smiles": "COC(=O)c1c(-c2c(F)cccc2Cl)noc1-c1cnn(-c2nccc(C(F)(F)F)n2)c1C(F)(F)F", "note": "[Example 67, methyl 3-(2-chloro-6-fluorophenyl)-5-(5-(trifluoromethyl)-1-(4-(trifluoromethyl)pyrimidin-2-yl)-1H-pyrazol-4-yl)isoxazole-4-carboxylate]", "values": [
      {"measurement": "IC50", "setting": "[1]", "value": "100 to 1000", "unit": "nM"}
    ]},
    {"smiles": "Fc1cccc(Cl)c1-c1noc(-c2cnn(-c3cccc(Cl)c3)c2C(F)(F)F)c1-c1cnco1", "note": "[Example I-8, 3-(2-chloro-6-fluorophenyl)-5-(1-(3-chlorophenyl)-5-(trifluoromethyl)-1H-pyrazol-4-yl)-4-(oxazol-5-yl)isoxazole]", "values": [
      {"measurement": "IC50", "setting": "[2]", "value": "< 10", "unit": "nM"}
    ]}
  ]
}
